Measurements reported in ChEMBL document CHEMBL3091369, “Synthesis and structure-activity relationships of new carbonyl guanidine derivatives as novel dual 5-HT2B and 5-HT7 receptor antagonists” (Bioorg Med Chem, 2013).

Key:
[1] = molecular target: T1, Muscarinic acetylcholine receptor M1 (Homo sapiens, UniProt P11229); test: Binding affinity to muscarinic M1 receptor (unknown origin)
T1 sequence (P11229 whole entry): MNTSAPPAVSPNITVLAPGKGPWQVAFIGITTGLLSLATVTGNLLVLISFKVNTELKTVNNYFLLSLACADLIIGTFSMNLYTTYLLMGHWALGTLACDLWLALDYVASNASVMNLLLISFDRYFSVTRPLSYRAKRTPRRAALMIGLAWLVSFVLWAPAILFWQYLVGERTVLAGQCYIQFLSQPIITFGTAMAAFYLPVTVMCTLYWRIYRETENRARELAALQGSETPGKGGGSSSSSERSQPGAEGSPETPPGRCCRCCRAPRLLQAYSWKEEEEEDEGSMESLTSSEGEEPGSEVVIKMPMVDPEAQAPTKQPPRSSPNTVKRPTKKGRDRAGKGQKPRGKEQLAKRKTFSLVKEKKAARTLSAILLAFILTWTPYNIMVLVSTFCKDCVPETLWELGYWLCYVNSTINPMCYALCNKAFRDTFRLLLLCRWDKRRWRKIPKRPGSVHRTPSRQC

D(2) dopamine receptor = D(2) dopamine receptor (Homo sapiens, UniProt P14416); test: Binding affinity to dopamine D2 receptor (unknown origin)
Sequence of D(2) dopamine receptor (P14416 whole entry): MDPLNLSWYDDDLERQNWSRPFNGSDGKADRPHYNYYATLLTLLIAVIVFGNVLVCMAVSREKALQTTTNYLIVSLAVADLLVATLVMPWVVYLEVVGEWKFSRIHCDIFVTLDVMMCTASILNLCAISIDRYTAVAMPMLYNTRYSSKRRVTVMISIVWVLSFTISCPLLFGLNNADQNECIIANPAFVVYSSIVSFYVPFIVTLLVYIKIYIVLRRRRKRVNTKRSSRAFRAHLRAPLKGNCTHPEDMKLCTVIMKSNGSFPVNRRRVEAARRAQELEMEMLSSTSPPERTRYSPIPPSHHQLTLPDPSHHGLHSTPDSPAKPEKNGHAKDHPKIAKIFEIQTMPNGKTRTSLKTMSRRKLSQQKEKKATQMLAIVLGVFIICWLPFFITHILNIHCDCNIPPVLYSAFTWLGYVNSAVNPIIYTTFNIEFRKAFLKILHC

[2] = molecular target: T2, 5-hydroxytryptamine receptor 2B (Homo sapiens, UniProt P41595); test: Antagonist activity at human 5-HT2B receptor expressed in HEK293 cells coexpressing EBNA assessed as inhibition of 5-HT-induced IP metabolism incubated for 20 mins prior to substrate addition measured after 20 mins by liquid scintillation counting analysis; assay type: cell-based
T2 sequence (P41595 whole entry): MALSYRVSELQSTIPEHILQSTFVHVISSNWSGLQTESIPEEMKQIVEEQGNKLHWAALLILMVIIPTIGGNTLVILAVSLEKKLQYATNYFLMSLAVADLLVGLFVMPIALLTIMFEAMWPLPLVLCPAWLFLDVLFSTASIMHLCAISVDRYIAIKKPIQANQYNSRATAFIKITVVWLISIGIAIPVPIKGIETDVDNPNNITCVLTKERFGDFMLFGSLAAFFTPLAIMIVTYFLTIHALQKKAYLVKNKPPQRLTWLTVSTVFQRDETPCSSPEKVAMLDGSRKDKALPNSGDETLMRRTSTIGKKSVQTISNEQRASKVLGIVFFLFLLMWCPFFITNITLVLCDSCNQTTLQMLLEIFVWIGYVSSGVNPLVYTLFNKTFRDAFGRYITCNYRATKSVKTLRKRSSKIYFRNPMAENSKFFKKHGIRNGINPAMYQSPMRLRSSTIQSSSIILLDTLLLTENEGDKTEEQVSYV

[3] = molecular target: 5-hydroxytryptamine receptor 2A (Homo sapiens, UniProt P28223); test: Binding affinity to 5-HT2A receptor (unknown origin)
Sequence of 5-hydroxytryptamine receptor 2A (P28223 whole entry): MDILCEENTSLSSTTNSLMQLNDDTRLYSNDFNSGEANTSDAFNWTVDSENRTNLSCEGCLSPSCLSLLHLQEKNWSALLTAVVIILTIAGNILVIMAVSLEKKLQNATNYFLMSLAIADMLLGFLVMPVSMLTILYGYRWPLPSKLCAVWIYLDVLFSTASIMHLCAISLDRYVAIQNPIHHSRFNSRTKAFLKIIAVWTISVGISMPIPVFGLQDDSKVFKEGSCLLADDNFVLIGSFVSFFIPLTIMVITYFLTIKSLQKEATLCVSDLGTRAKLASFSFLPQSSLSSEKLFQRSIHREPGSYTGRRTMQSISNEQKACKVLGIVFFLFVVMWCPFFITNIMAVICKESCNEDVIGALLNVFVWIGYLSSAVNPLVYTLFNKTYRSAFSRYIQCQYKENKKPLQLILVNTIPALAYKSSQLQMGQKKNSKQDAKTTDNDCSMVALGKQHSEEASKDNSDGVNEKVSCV

[4] = Aqueous solubility of the compound in second liquid of Japanese pharmacopoeia at pH 6.8 after 20 hrs by liquid chromatographic analysis; assay type: physicochemical
[5] = molecular target: T3, Adrenergic receptor alpha-1 (Homo sapiens, UniProt P35348+P25100+P35368); test: Binding affinity to adrenergic alpha1 receptor (unknown origin)
T3 sequence (P35348 whole entry): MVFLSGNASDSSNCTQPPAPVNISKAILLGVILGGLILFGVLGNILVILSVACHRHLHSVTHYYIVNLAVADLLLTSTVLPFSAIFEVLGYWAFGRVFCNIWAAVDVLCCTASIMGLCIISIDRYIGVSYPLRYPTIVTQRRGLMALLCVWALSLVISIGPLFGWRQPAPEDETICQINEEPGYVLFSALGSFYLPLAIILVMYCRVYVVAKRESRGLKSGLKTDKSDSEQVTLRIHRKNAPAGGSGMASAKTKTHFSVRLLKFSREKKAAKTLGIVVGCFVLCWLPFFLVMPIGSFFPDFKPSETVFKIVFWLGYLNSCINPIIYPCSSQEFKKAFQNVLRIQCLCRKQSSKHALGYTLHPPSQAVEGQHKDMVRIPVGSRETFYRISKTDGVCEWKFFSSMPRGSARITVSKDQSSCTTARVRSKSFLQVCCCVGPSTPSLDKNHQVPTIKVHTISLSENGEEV
T3 sequence (P25100 whole entry): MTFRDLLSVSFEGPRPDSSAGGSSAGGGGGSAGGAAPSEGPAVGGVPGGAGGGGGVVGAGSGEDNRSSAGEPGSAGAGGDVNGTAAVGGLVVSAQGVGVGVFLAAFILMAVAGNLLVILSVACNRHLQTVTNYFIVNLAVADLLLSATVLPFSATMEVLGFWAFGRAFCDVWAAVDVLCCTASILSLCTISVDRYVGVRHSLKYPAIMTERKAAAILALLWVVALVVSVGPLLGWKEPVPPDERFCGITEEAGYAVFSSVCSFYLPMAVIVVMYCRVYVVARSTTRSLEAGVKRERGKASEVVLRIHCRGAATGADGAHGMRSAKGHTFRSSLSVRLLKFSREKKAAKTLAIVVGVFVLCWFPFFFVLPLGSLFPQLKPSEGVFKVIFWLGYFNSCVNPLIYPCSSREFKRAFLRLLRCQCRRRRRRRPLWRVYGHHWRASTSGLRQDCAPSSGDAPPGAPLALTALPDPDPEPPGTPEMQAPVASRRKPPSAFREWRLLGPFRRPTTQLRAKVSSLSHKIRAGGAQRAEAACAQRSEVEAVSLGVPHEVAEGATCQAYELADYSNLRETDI
T3 sequence (P35368 whole entry): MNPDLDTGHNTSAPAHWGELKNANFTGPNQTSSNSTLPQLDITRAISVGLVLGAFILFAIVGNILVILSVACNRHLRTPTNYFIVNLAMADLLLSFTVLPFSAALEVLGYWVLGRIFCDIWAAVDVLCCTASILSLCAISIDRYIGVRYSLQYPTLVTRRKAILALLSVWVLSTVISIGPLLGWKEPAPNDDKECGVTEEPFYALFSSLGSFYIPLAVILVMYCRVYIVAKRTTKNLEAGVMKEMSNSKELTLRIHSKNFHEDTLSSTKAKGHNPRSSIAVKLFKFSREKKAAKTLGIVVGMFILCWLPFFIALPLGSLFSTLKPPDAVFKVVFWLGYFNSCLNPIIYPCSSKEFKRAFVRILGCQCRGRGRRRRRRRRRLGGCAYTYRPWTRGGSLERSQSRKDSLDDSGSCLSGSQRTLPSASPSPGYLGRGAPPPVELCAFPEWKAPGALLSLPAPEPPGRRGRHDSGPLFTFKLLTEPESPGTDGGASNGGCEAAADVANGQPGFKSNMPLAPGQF

[6] = molecular target: T4, 5-hydroxytryptamine receptor 2C (Homo sapiens, UniProt P28335); test: Binding affinity to 5-HT2C receptor (unknown origin)
T4 sequence (P28335 whole entry): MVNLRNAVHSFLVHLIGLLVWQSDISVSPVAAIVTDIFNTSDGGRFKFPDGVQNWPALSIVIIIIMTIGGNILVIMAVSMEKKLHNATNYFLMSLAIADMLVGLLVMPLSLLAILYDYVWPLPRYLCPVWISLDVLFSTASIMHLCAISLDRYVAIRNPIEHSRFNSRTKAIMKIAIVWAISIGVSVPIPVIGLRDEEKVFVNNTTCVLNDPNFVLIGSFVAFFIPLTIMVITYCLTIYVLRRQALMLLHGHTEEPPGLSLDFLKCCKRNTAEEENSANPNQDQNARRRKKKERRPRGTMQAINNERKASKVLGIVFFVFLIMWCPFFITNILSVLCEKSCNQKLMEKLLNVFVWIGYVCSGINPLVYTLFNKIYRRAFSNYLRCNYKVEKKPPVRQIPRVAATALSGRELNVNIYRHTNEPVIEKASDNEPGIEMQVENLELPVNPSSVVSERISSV

[7] = molecular target: T2, 5-hydroxytryptamine receptor 2B; test: Displacement of [3H]Mesulergine from human 5-HT2B receptor expressed in HEK293 cells by liquid scintillation counting analysis; assay type: cell-based
[8] = molecular target: T5, 5-hydroxytryptamine receptor 7 (Homo sapiens, UniProt P34969); test: Displacement of [3H]5-HT from human 5-HT7 receptor expressed in CHO cells by liquid scintillation counting analysis; assay type: cell-based
T5 sequence (P34969 whole entry): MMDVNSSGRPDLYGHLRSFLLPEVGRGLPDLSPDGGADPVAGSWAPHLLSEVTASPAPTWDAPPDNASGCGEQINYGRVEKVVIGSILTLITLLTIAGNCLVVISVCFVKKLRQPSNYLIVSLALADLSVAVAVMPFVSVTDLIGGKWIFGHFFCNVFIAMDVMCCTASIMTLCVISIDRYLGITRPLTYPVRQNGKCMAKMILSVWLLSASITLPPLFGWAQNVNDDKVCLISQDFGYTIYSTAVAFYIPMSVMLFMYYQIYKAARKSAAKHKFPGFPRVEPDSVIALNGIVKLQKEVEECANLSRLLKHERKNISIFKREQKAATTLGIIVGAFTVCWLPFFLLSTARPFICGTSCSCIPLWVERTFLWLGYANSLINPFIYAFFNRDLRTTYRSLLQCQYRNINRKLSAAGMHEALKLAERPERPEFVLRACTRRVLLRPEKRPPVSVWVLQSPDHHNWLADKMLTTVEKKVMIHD

[9] = molecular target: T5, 5-hydroxytryptamine receptor 7; test: Antagonist activity at human 5-HT7 receptor expressed in CHO cells assessed as inhibition of agonist-induced cAMP production at 10 uM incubated for 20 mins prior to substrate addition measured after 10 mins by EIA relative to control; assay type: functional, cell-based
Cavia porcellus [10] = test: Suppression of 5-HT induced dural FITC-labeled BSA extravasation in Hartley guinea pig at 3 mg/kg, ip pretreated for 30 mins followed by FITC-labeled BSA administration measured after 16 hrs by fluorescence assay relative to control; assay type: functional; conditions: route intraperitoneal
Cavia porcellus [11] = test: Suppression of 5-HT induced dural FITC-labeled BSA extravasation in po dosed Hartley guinea pig pretreated for 30 mins followed by FITC-labeled BSA administration measured after 16 hrs by fluorescence assay; assay type: functional, organism-based
Cavia porcellus [12] = test: Suppression of 5-HT induced dural FITC-labeled BSA extravasation in ip dosed Hartley guinea pig pretreated for 30 mins followed by FITC-labeled BSA administration measured after 16 hrs by fluorescence assay; assay type: functional, organism-based

In the case of NC(N)=NC(=O)c1ccc2c(c1)Cc1ccccc1-2, the Ki [1] is reported as greater than 1000 nM, the Ki (D(2) dopamine receptor) is reported as 1400 nM and the IC50 [2] is reported as 36.4 nM. For the same compound, the Ki [3] was 1000 nM, the solubility at 20 h [4] was less than 1 µg/mL and the Ki [5] was 790 nM. It also gave a Ki [6] of 200 nM, a Ki [7] of 1.8 nM and a Ki [8] of 12.4 nM. For the same compound, the Imax [9] was 98%.

With CC(C)c1cc(-c2ccc(F)c3ccccc23)nc(N)n1 the Activity (Cavia porcellus [10]) was 60%.

CN1CCC(=C2c3ccccc3CCc3sccc32)CC1 [PIZOTYLINE] gave a Ki [1] of 2 nM, a Ki (D(2) dopamine receptor) of 2.4 nM and a Ki [3] of 7.5 nM. For the same compound, the Ki [5] was 75 nM, the Ki [6] was 1.4 nM and the Ki [7] was 2 nM. The Ki [8] was 25 nM.

Compound NC(N)=NC(=O)c1ccc2c(c1)Oc1ccccc1N2 has a Ki [7] of 2.4 nM and a Ki [8] greater than 1000 nM.

With NC(N)=NC(=O)c1cccc2c1Cc1ccccc1-2 the Ki [7] was 1.1 nM and the Ki [8] was 239 nM.

With NC(N)=NC(=O)c1cccc2c1-c1ccccc1C2 the Ki [7] was 27.4 nM and the Ki [8] was greater than 1000 nM.

NC(N)=NC(=O)c1ccc2c(c1)[nH]c1ccccc12 gave a Ki [7] of 10 nM and a Ki [8] of 42 nM.

Compound NC(N)=NC(=O)/C=C/c1ccc2c(c1)C(O)c1ccccc1-2 (configuration not stated) has a Ki [7] of 52 nM and a Ki [8] greater than 100 nM.

Work on NC(N)=NC(=O)c1ccc2c(c1)-c1ccccc1C2O (configuration not stated) yielded a Ki [7] of 86.8 nM and a Ki [8] greater than 1000 nM.

For NC(N)=NC(=O)c1ccc2c(c1)Nc1ccccc1O2, the Ki [7] was 3.6 nM and the Ki [8] was 144 nM.

Work on NC(N)=NC(=O)c1ccc2c(c1)oc1ccccc12 yielded a Ki [7] of 2.1 nM and a Ki [8] greater than 100 nM.

NC(N)=NC(=O)c1ccc2c(c1)C(=O)c1ccccc1-2 showed a Ki [7] of 0.4 nM and a Ki [8] of 185 nM.

Compound Cl.NC(N)=NC(=O)c1ccc2c(c1)C(O)c1ccccc1-2 (configuration not stated) has a Ki [1] greater than 1000 nM, a Ki (D(2) dopamine receptor) greater than 1000 nM and an IC50 [2] of 19.6 nM. For the same compound, the Ki [3] was greater than 1000 nM, the Activity (Cavia porcellus [11]) was “Dose-dependent effect” and the solubility at 20 h [4] was less than 10 µg/mL. It also gave a Ki [5] greater than 1000 nM, a Ki [6] greater than 1000 nM and an Activity (Cavia porcellus [10]) of 93%. For the same compound, the Imax [9] was 97% and the Activity (Cavia porcellus [12]) was “Dose-dependent effect”.
